Reference: US8394952B2 (Vertex Pharmaceuticals Incorporated, priority 2006, dated 2013)

molecular target: Plk1 (Homo sapiens, UniProt P53350); assay: biochemical
Sequence (P53350 20-338): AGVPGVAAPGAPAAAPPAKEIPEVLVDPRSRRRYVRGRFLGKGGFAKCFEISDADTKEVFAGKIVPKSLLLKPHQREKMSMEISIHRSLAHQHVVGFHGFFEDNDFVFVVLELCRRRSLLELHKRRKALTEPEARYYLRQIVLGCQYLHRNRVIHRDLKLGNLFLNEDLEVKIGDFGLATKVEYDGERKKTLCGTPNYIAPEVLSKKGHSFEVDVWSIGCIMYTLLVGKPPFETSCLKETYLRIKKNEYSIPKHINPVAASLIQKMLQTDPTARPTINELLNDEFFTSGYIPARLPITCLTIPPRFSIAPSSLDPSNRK

First: CN1CCN(c2ccc(Nc3ncc4c(n3)N(C3CCCC3)CC(C)(C)C(=O)N4C)cc2)CC1 [Compound I-85, 2-(4-(4-methylpiperazin-1-yl)phenylamino)-9-cyclopentyl-8,9-dihydro-5,7,7-trimethyl-5H-pyrimido[4,5-b][1,4]diazepin-6(7H)-one]
Second: CC(=O)Nc1ccc(Nc2ncc3c(n2)N(C2CCCC2)CC(C)(C)C(=O)N3C)cc1 [Compound I-112, N-(4-(9-cyclopentyl-6,7,8,9-tetrahydro-5,7,7-trimethyl-6-oxo-5H-pyrimido[4,5-b][1,4]diazepin-2-ylamino)phenyl)acetamide]
The Ki of the first is lower: under 10 nM for the first, 10 to 100 nM for the second.

`COc1cc(C(=O)NC2CC2)ccc1Nc1ncc2c(n1)N(C1CCCC1)C[C@@H](C)C(=O)N2C` [Compound I-184, (R)-4-(9-cyclopentyl-5,7-dimethyl-6-oxo-6,7,8,9-tetrahydro-5H-pyrimido[4,5-b][1,4]diazepin-2-ylamino)-N-cyclopropyl-3-methoxybenzamide] and `CNC(=O)c1ccc(Nc2ncc3c(n2)N(C2CCCC2)C[C@H](C)C(=O)N3C)c(OC)c1` [Compound I-17, 4-((S)-9-cyclopentyl-6,7,8,9-tetrahydro-5,7-dimethyl-6-oxo-5H-pyrimido[4,5-b][1,4]diazepin-2-ylamino)-3-methoxy-N-methylbenzamide] cannot be ordered by Ki: under 10 nM for the first, under 10 nM for the second.

`COc1cc(C(=O)NC2CN(C)C2)ccc1Nc1ncc2c(n1)N(C1CCCC1)CC(C)(C)C(=O)N2C` [Compound I-25, 4-(9-cyclopentyl-6,7,8,9-tetrahydro-5,7,7-trimethyl-6-oxo-5H-pyrimido[4,5-b][1,4]diazepin-2-ylamino)-3-methoxy-N-(1-methylazetidin-3-yl)benzamide] and `COCCCNC(=O)c1ccc(Nc2ncc3c(n2)N(C2CCCC2)CC(C)(C)C(=O)N3C)c(OC)c1` [Compound I-198, 4-(9-cyclopentyl-5,7,7-trimethyl-6-oxo-6,7,8,9-tetrahydro-5H-pyrimido[4,5-b][1,4]diazepin-2-ylamino)-3-methoxy-N-(3-methoxypropyl)benzamide] cannot be ordered by Ki: under 10 nM for the first, under 10 nM for the second.

`CN1C(=O)C(C)(C)CN(C2CCCC2)c2nc(Nc3cccc(N4CCCC4=O)c3)ncc21` [Compound I-149, 2-(3-(2-oxopyrrolidin-1-yl)phenylamino)-9-cyclopentyl-8,9-dihydro-5,7,7-trimethyl-5H-pyrimido[4,5-b][1,4]diazepin-6(7H)-one] and `COCC(=O)Nc1cccc(Nc2ncc3c(n2)N(C2CCCC2)CC(C)(C)C(=O)N3C)c1` [Compound I-147, N-(3-(9-Cyclopentyl-6,7,8,9-tetrahydro-5,7,7-trimethyl-6-oxo-5H-pyrimido[4,5-b][1,4]diazepin-2-ylamino)phenyl)-2-methoxyacetamide] fall in the same range of Ki: 10 to 100 nM for the first, 10 to 100 nM for the second.

`COc1cc(C(=O)NCC2CCOCC2)ccc1Nc1ncc2c(n1)N(C1CCCC1)CC(C)(C)C(=O)N2C` [Compound I-195, 4-(9-cyclopentyl-5,7,7-trimethyl-6-oxo-6,7,8,9-tetrahydro-5H-pyrimido[4,5-b][1,4]diazepin-2-ylamino)-3-methoxy-N-((tetrahydrofuran-2H-pyran-4-yl)methyl)benzamide] and `COc1cc(C(=O)NCc2cc(C)on2)ccc1Nc1ncc2c(n1)N(C1CCCC1)CC(C)(C)C(=O)N2C` [Compound I-235, 4-(9-cyclopentyl-5,7,7-trimethyl-6-oxo-6,7,8,9-tetrahydro-5H-pyrimido[4,5-b][1,4]diazepin-2-ylamino)-3-methoxy-N-((5-methylisoxazol-3-yl)methyl)benzamide] cannot be ordered by Ki: under 10 nM for the first, under 10 nM for the second.

First: CN1C(=O)C(C)(C)CN(C2CCCC2)c2nc(Nc3ccc(-c4cc[nH]n4)cc3)ncc21 [Compound I-99, 2-(4-(1H-pyrazol-3-yl)phenylamino)-9-cyclopentyl-8,9-dihydro-5,7,7-trimethyl-5H-pyrimido[4,5-b][1,4]diazepin-6(7H)-one]
Second: CN1C(=O)C(C)(C)CN(C2CCCC2)c2nc(Nc3ccc4c(c3)C(=O)C(=O)N4)ncc21 [Compound I-139, 5-(9-Cyclopentyl-6,7,8,9-tetrahydro-5,7,7-trimethyl-6-oxo-5H-pyrimido[4,5-b][1,4]diazepin-2-ylamino)indoline-2,3-dione]
The Ki of the first is lower: under 10 nM for the first, 10 to 100 nM for the second. The first binds more tightly here.

`COCCNC(=O)c1ccc(Nc2ncc3c(n2)N(C2CCCC2)CCC(=O)N3C)c(OC)c1` [Compound I-11, 4-(9-cyclopentyl-6,7,8,9-tetrahydro-5-methyl-6-oxo-5H-pyrimido[4,5-b][1,4]diazepin-2-ylamino)-3-methoxy-N-(2-methoxyethyl)benzamide] and `CCC1CN(C2CCCC2)c2nc(Nc3ccc(C(=O)NC)cc3OC)ncc2N(C)C1=O` (stereo not shown) [Compound I-190, 4-(9-cyclopentyl-7-ethyl-5-methyl-6-oxo-6,7,8,9-tetrahydro-5H-pyrimido[4,5-b][1,4]diazepin-2-ylamino)-3-methoxy-N-methylbenzamide] cannot be ordered by Ki: under 10 nM for the first, under 10 nM for the second.

Compared with `CN1C(=O)C(C)(C)CN(C2CCCC2)c2nc(Nc3cccc4cn(C)nc34)ncc21` [Compound I-91, 2-(2-methyl-2H-indazol-7-ylamino)-9-cyclopentyl-8,9-dihydro-5,7,7-trimethyl-5H-pyrimido[4,5-b][1,4]diazepin-6(7H)-one], `COc1cc(C(=O)NCc2ccccn2)ccc1Nc1ncc2c(n1)N(C1CCCC1)CC(C)(C)C(=O)N2C` [Compound I-255, 4-(9-cyclopentyl-5,7,7-trimethyl-6-oxo-6,7,8,9-tetrahydro-5H-pyrimido[4,5-b][1,4]diazepin-2-ylamino)-3-methoxy-N-(pyridin-2-ylmethyl)benzamide] is lower in Ki: 10 to 100 nM for the first, under 10 nM for the second. The second binds more tightly here.

First: CN1C(=O)CCN(C2CCCC2)c2nc(Nc3ccc(C(=O)O)cc3)ncc21 [Compound I-3, 4-(9-Cyclopentyl-6,7,8,9-tetrahydro-5-methyl-6-oxo-5H-pyrimido[4,5-b][1,4]diazepin-2-ylamino)-benzoic acid]
Second: COc1cc(C(=O)NCc2ccccc2)ccc1Nc1ncc2c(n1)N(C1CCCC1)CC(C)(C)C(=O)N2C [Compound I-201]
The Ki of the first is higher: 10 to 100 nM for the first, under 10 nM for the second.

`CNC(=O)c1ccc(Nc2ncc3c(n2)N(C2CC4CCC2C4)CC(C)(C)C(=O)N3C)c(OC)c1` (stereo not shown) [Compound I-191, 4-(9-(bicyclo[2.2.1]heptan-2-yl)-5,7,7-trimethyl-6-oxo-6,7,8,9-tetrahydro-5H-pyrimido[4,5-b][1,4]diazepin-2-ylamino)-3-methoxy-N-methylbenzamide] and `COc1cc(C(=O)NC2(CO)CCCC2)ccc1Nc1ncc2c(n1)N(C1CCCC1)CC(C)(C)C(=O)N2C` [Compound I-254, 4-(9-cyclopentyl-5,7,7-trimethyl-6-oxo-6,7,8,9-tetrahydro-5H-pyrimido[4,5-b][1,4]diazepin-2-ylamino)-N-(1-(hydroxymethyl)cyclopentyl)-3-methoxybenzamide] cannot be ordered by Ki: under 10 nM for the first, under 10 nM for the second.

Compared with `COc1cc(C(=O)NC2CCN(C)CC2)ccc1Nc1ncc2c(n1)N(C1CCCC1)CC1(CC1)C(=O)N2C` [Compound I-76, 4-(9′-cyclopentyl-5′-methyl-6′-oxo-5′,6′,8′,9′-tetrahydrospiro[cyclopropane-1,7′-pyrimido[4,5-b][1,4]diazepine]-2′-ylamino)-3-methoxy-N-(1-methylpiperidin-4-yl)benzamide], `COc1cc(C(=O)NC2CCN(C)CC2)ccc1Nc1ncc2c(n1)N(C)CCC(=O)N2C` [Compound I-14, 4-(6,7,8,9-tetrahydro-5,9-dimethyl-6-oxo-5H-pyrimido[4,5-b][1,4]diazepin-2-ylamino)-3-methoxy-N-(1-methylpiperidin-4-yl)benzamide] is higher in Ki: under 10 nM for the first, 10 to 100 nM for the second.
